Test results reported in patent publication US20110060156A1, “Pyruvate Derivatives with Neuroprotective Effect, Process for Preparing the Same and Pharmaceutical Composition Comprising the Same” (S.H. PHARMA., LTD., priority 2008, published 2011).
Counter-ions that a name gives are not always drawn.

Assays:
[1] = system: model of focal ischemic stroke (middle cerebral artery occlusion, MCAO); assay: Cerebral infarction inhibition in animal model of focal ischemic stroke (MCAO 1 hour, TTC staining, infarct volume); assay type: in vivo, rat; conditions: for inhibition effect of cerebral infarction: 30 minutes before MCAO (1 hour)
Protocol: A model of focal ischemic stroke in the rat according to the Longa's method (1989) was used. The animal model of stroke was established by occluding the middle cerebral artery (MCA) for 1 hour using nylon suture (middle cerebral artery occlusion, MCAO). In order to investigate the effect of pyruvate derivatives according to the present invention on cerebral ischemia, a rat was decapitated after reperfusion. The whole brain was sliced into 2 mm-thick coronal slices. The slices were immediately stained by immersing in 1% 2,3,5-triphenyl tetrazolium chloride (TTC). After keeping in 4% paraformaldehyde solution at 37° C. for 15 minutes, the brain slices were subjected to measurement and analysis using Quantity One software (Bio-Rad, Hercules, Calif., USA).

[2] = system: stroke animal model (ischemia-reperfusion); conditions: cited from earlier work
[3] = 1 mg/kg intravenously, 6 hours after reperfusion
[4] = 1 mg/kg intravenously, 12 hours after reperfusion
[5] = 5 mg/kg intravenously, 6 hours after reperfusion
[6] = 5 mg/kg intravenously, 12 hours after reperfusion
[7] = 10 mg/kg intravenously, 6 hours after reperfusion
[8] = 10 mg/kg intravenously, 12 hours after reperfusion

Molecule CC(=O)C(=O)Oc1cc(C(F)(F)F)ccc1C(=O)O (as salt: potassium) [2-(2-oxopropanoyloxy)-4-(trifluoromethyl)benzoic acid] has a melting point of 163 °C.
In the case of CC(=O)C(=O)Oc1cc(C(F)(F)F)ccc1C(=O)O [2-(2-oxopropanoyloxy)-4-(trifluoromethyl)benzoic acid], the “inhibition effect of cerebral infarction as compared to the control group” value ([1]; 5 mg/kg intravenously, MCAO 1 hour, time not stated in b180 (FIG. 8: 6 hours following MCAO)) was 71.3%.
With CC(=O)C(=O)Oc1ccc(NCc2c(F)c(F)c(C(F)(F)F)c(F)c2F)cc1C(=O)O [2-(2-oxopropanoyloxy)-5-(2,3,5,6-tetrafluoro-4-(trifluoromethyl)benzylamino)benzoic acid] the melting point was 128 °C, the “inhibition effect of cerebral infarction” value ([1]; 1 mg/kg intravenously) was 20.2% and the “change in the infarct volume” value [1, 3] was “no change”. The “change in the infarct volume” value [1, 4] was “no change”, the “inhibition effect of cerebral infarction” value ([1]; 5 mg/kg intravenously) was 90.9% and the “infarct volume reduced to, as compared to the control group” value [1, 5] was 24.5%. For the same molecule, the “infarct volume reduced to, as compared to the control group” value [1, 6] was 56.8%, the “inhibition effect of cerebral infarction” value ([1]; 10 mg/kg intravenously) was 88.4% and the “infarct volume reduced to, as compared to the control group” value [1, 7] was 33.3%. For the same molecule, the “infarct volume reduced to, as compared to the control group” value [1, 8] was 62.4%.
With CC(=O)C(=O)Oc1ccccc1C(=O)O [2-(2-oxopropanoyloxy)benzoic acid] the “inhibition effect of cerebral infarction” value ([1]; 1 mg/kg intravenously) was 42.0%, the “change in the infarct volume” value [1, 3] was “no change” and the “change in the infarct volume” value [1, 4] was “no change”. The “inhibition effect of cerebral infarction” value ([1]; 5 mg/kg intravenously) was 90.2%, the “infarct volume reduced to, as compared to the control group” value [1, 5] was 47.5% and the “infarct volume reduced to, as compared to the control group” value [1, 6] was 57.4%. For the same molecule, the “inhibition effect of cerebral infarction” value ([1]; 10 mg/kg intravenously) was 89.5%, the “infarct volume reduced to, as compared to the control group” value [1, 7] was 26.6% and the “infarct volume reduced to, as compared to the control group” value [1, 8] was 64.3%.
With CC(=O)C(=O)NCCC(Oc1ccc(C(F)(F)F)cc1)c1ccccc1 (stereo not shown) [2-oxo-N-(3-phenyl-3-(4-(trifluoromethyl)phenoxy)propyl)propanamide] the “infarct volume reduced to, as compared to the control group” value [1, 7] was 58.7%.
For CC(=O)C(=O)N(C)CCC(Oc1ccc(C(F)(F)F)cc1)c1ccccc1 (stereo not shown) [N-methyl-2-oxo-N-(3-phenyl-3-(4-(trifluoromethyl)phenoxy)propyl)propanamide], the “infarct volume reduced to, as compared to the control group” value [1, 7] was 16.0%.
For CCOC(=O)C(C)=O [ethyl pyruvate], the “infarct size reduced to” value ([2]; abdominally administered within 12 hours after ischemia-reperfusion) is listed as ≤ 50% and the “infarct size reduced by” value ([2]; treatment within 24 hours) is listed as “about 20%”.
